The source of these data is patent US11786517B2, “Methods of treatment using a JAK inhibitor compound” (THERAVANCE BIOPHARMA R&D IP, LLC, priority 2017, dated 2023).

Assay [1] deals with IFNγ induced IP-10 protein levels. Description: Pharmacodynamic assay: inhibition of IFNγ-induced IP-10 in rabbits. Format: in vivo, New Zealand White rabbits. As to the method: The ability of a single intravitreal administration of test compound to inhibit interferon-gamma (IFNγ) induced IP-10 protein levels was measured in rabbit vitreous and retina/choroid tissues.
Solution formulations at concentrations of 1 mg/mL and 4 mg/mL of compound 1 of Example 1 were prepared as in Assay 8. A suspension formulation was prepared by combining crystalline compound 1 of Example 1 with 0.5% hydroxypropyl methylcellulose (HPMC E5), 0.02% Tween 80, and 9 mg/mL sodium chloride in purified water to attain a target concentration of 20 mg/mL.
Male, New Zealand White rabbits (Liveon Biolabs, India) were used for the studies. Animals were acclimated after arrival at the research facilities (Jubilant Biosys Ltd., India). Each rabbit was given a total of two intravitreal (IVT) injections with a total dose volume of 50 μL per eye. The first IVT injection (45 μL per eye) delivered test compound or vehicle at a prescribed time point (i.e. 24 hours for the solution formulations or 1 week for the suspension formulation). The second IVT injection (5 μL per eye) delivered IFNγ (1 μg/eye; Stock solution 1 mg/mL; Kingfisher Biotech) or vehicle for the induction of IP-10. In brief, on the day of the injections, rabbits were anesthetized with an intramuscular injection of ketamine (35 mg/kg) and xylazine (5 mg/kg). Once deeply anesthetized, each eye was rinsed with sterile saline and IVT injections were performed using a 0.5 mL insulin syringe (50 units=0.5 mL) with a 31-gauge needle at the supra-nasal side of the both eyes by marking the position with a Braunstein fixed caliper (2¾″) 3.5 mm from the rectus muscle and 4 mm from the limbus.
Tissues were collected 24 hours after the second IVT injection with IFNγ. Vitreous humor (VH) and retina/choroid tissues (R/C) were collected and homogenized, and IP-10 protein levels were measured using a rabbit CXCL10 (IP-10) ELISA kit (Kingfisher Biotech). The percent inhibition of IFNγ-induced IP-10 was calculated in comparison to the vehicle/vehicle and vehicle/IFNγ groups.

Assay [2] has as its system airway neutrophils. Description: Murine model of LPS/G-CSF/IL-6/IFNγ cocktail-induced airway neutrophilic inflammation. To be noted: mouse, 1.0 mg/mL 50 μL oropharyngeal aspiration, BALF at twenty-four hours. The assay is classed as in vivo, Balb/C mice. The procedure: Airway neutrophilia is a hallmark of a range of respiratory disease in humans. Compound 1 was tested in a model of neutrophilic airway inflammation using a LPS/G-CSF/IL-6/IFNγ cocktail to induce airway neutrophilia.
Seven- to nine-week old male Balb/C (wildtype) mice from Jackson Laboratory were used in the study. On the day of study, animals were lightly anesthetized with isoflurane and administered either vehicle or test compound (1.0 mg/mL, 50 μL total volume over several breaths) via oropharyngeal aspiration. Animals were placed in lateral recumbency post dose and monitored for full recovery from anesthesia before being returned to their home cage. One hour later, animals were once again briefly anesthetized and challenged with either vehicle or LPS; 0.01 mg/kg/G-CSF; 5 μg/IL-6; 5 μg/IFNγ; 5 μg (100 μL total volume) via oropharyngeal aspiration (OA). Twenty-four hours after the LPS/G-CSF/IL-6/IFNγ cocktail administration, bronchoalveolar lavage fluid (BALF) was collected and neutrophils were counted.

The subject of assay [3] is IL-13 induced pSTAT6 in lung tissue. The experiment in a line: Murine model of IL-13 induced pSTAT6 induction in lung tissue. Format: in vivo, balb/c mice. The settings on record: mouse lung, 0.5 mg/mL 50 μL oral aspiration. The procedure:
Il-13 is an important cytokine underlying the pathophysiology of asthma (Kudlacz et al. Eur. J. Pharmacol, 2008, 582, 154-161). IL-13 binds to cell surface receptors activating members of the Janus family of kinases (JAK) which then phosphorylate STAT6 and subsequently activates further transcription pathways. In the described model, a dose of IL-13 was delivered locally into the lungs of mice to induce the phosphorylation of STAT6 (pSTAT6) which is then measured as the endpoint.
Adult balb/c mice from Harlan were used in the assay. On the day of study, animals were lightly anesthetized with isoflurane and administered either vehicle or test compound (0.5 mg/mL, 50 μL total volume over several breaths) via oral aspiration. Animals were placed in lateral recumbency post dose and monitored for full recovery from anesthesia before being returned to their home cage. Four hours later, animals were once again briefly anesthetized and challenged with either vehicle or IL-13 (0.03 μg total dose delivered, 50 μL total volume) via oral aspiration before being monitored for recovery from anesthesia and returned to their home cage. […] using an anti-pSTAT6 ELISA (rabbit mAb capture/coating antibody; mouse mAb detection/report antibody: anti-pSTAT6-pY641; secondary antibody: anti-mouse IgG-HRP) and analyzed for total drug concentration as described above in Assay 11. […]

Assay [4] deals with IL-6 induced pSTAT3 in rat retina/choroid. Description: Pharmacodynamic assay: inhibition of IL6-induced pSTAT3 in rats. The assay is classed as in vivo, Female Lewis rats. The settings on record: 3 day pre-treatment. The procedure: The ability of a single intravitreal administration of test compound to inhibit IL-6 induced pSTAT3 was measured in rat retina/choroid homogenates.
Suspension formulations were prepared by combining crystalline compound 1 of Example 1 with 0.5% hydroxypropyl methylcellulose (HPMC E5 LV), 0.02% Tween 80, and 0.9% sodium chloride in purified water to attain target concentrations of 3 mg/mL and 10 mg/mL.
Female Lewis rats were intravitreally (IVT) dosed (5 μL per eye) with the suspension formulations or with the drug vehicle. Three days later, IL-6 (Peprotech; 0.1 mg/mL; 5 μL per eye) or vehicle was intravitreally administered to induce pSTAT3. Ocular tissues were dissected one hour after the second IVT injection with IL-6. The retina/choroid tissues were homogenized and pSTAT3 levels were measured using an ELISA (Cell Signaling Technology). The percent inhibition of IL-6-induced pSTAT3 was calculated in comparison to the vehicle/vehicle and vehicle/IL-6 groups. Inhibition of greater than 100% reflects a reduction of pSTAT3 levels to below those observed in the vehicle/vehicle group.

As to `CCc1cc(O)c(F)cc1-c1ccc2c(-c3nc4c([nH]3)CCN(C3CCN(C)CC3)C4)n[nH]c2c1` [compound 1, 5-ethyl-2-fluoro-4-(3-(5-(1-methylpiperidin-4-yl)-4,5,6,7-tetrahydro-1H-imidazo[4,5-c]pyridin-2-yl)-1H-indazol-6-yl)phenol], the “inhibition of IFNγ-induced IP-10” value in assay [1] (rabbit retina/choroid tissue, 45 μg solution, 24 hour pre-treatment) is reported as 86; in assay [1] (rabbit retina/choroid tissue, 180 μg solution, 24 hour pre-treatment), 100%; in assay [1] (rabbit retina/choroid tissue, crystalline suspension 20 mg/mL, 1 week pre-treatment), 100%; in assay [1] (rabbit vitreous humor, 45 μg solution, 24 hour pre-treatment) it was 70%; in assay [1] (rabbit vitreous humor, 180 μg solution, 24 hour pre-treatment), 91%; in assay [1] (rabbit vitreous humor, crystalline suspension 20 mg/mL, 1 week pre-treatment), 100%. The “reduction of the airway neutrophils compared to vehicle treated mice” value in assay [2] amounted to 84%. Moreover, the “inhibition of STAT6 phosphorylation” value in assay [3] is reported as “about 60%”. Further, the “inhibition of IL-6-induced pSTAT3” value amounted to 33% in assay [4] (15 μg intravitreal suspension) and 109% in assay [4] (50 μg intravitreal suspension).
